A word on the AUC(0-inf): it is the area under the concentration-time curve extrapolated to infinity. A higher AUC(0-inf) goes with high exposure. In general, Cmax refers to the maximum level reached in the sampled fluid or tissue. What is called Tmax is the time from dosing to the highest level. Usually MRT inf stands for a mean duration of stay, worked out from the concentration-time curve. One may read the clearance as a measure of how efficiently the substance is removed, as volume per time. The EC50 is the concentration that produces a half-maximal response.

Data set [1] in a line: In vivo pharmacokinetic experiment, oral administration. Set-up: species or system Sprague Dawley rats. Particulars: for half-life: po, 3 mg/kg. The procedure: (§1) In this Example, the pharmacokinetic properties of compounds 1, 2, 3, 4 and 5 were evaluated via. i.v. and p.o. dosing to Sprague Dawley rats.
(§2) Experimental animals used in this Example and hereinafter were male SD rats of 7-9 weeks old, with body weight ranging from 186 to 231 g, which were purchased from Beijing Vital River Laboratory Animal Technology Co., Ltd. The animals were quarantined by veterinarian for 5 days after purchase, then animals had passed quarantine inspection were selected to be tested under SPE conditions, wherein the tested animals are assigned into 3 rats per group as follows.
Oral administration group: 2.74 mg of each of compounds 1-5 was respectively prepared into a solution of 0.3 mg/mL by using 9.113 mL 0.5% CMC-Na as a diluent. Each solution was vortexed 1-2 mins after mixed fully, and then was ultrasonically treated for 20-30 mins until a uniform suspension was obtained. The uniform suspension was used as medicine administrated to oral administration group, and the administration was conducted with a dose of 10 mL/kg body weight of each rat.
(§3) For both oral administration group and intravenous administration group, blood samples were collected at 0.0833 h (5 min), 0.25 h (15 min), 0.5 h, 1 h, 2 h, 4 h, 8 h, and 24 h after administration. After isoflurane anesthesia 0.3 mL whole blood was collected from orbital venous plexus of the animals at each time point. The animals would be euthanized after all samples were collected.
(§4) The collected blood samples were placed in EP tubes containing heparin sodium (about 10 μl, 1000 IU/mL), which were then placed in trash ice immediately, and centrifuged at 4,000 rpm and a low temperature (4° C.) for 5 minutes. The plasma was isolated rapidly and then stored at −20° C. until analysis.
(§5) The concentration of each compound in blood was measured by LC-MS/MS-001 (Q-trap-3200) with osalmide as internal standard material, as follows. 24 μL blank plasma was added into 6 μL plasma sample (5 times of dilution), and then a solution of acetonitrile containing 150 μL internal standard material (osalmide in 100 μg/mL) was added in. The mixture was shaken for 5 minutes, and then centrifuged at 4,000 rpm for 5 minutes. 2 μL of the obtained sample was implanted into LC-MS/MS for analysis. As for undiluted plasma sample, 30 μL of it was added into a solution of acetonitrile containing 150 μL internal standard material (osalmide in 100 μg/mL). The mixture was shaken for 5 minutes, and then centrifuged at 4,000 rpm for 5 minutes. 2 μL of the obtained sample was implanted into LC-MS/MS for analysis.
(§6) As for data analysis, WinNolin (V6.2) non-compartment model (NCA) was used for calculating main metabolic pharmacokinetic parameters including t1/2, AUC(0−t), AUCinf, V, Cl, MRT, etc., and Microsoft Office EXCEL was used for calculating mean values, standard deviations and coefficients of variation.

Data set [2] can be described thus: In vivo pharmacokinetic experiment, intravenous administration. Set-up: species or system Sprague Dawley rats. The protocol: as §1, §2
Intravenous administration group: 1.61 mg of each of compounds 1-5 was respectively prepared into a solution of 1 mg/mL by using 1.610 mL 10% HP-β-CD as a diluent. Each solution was vortexed 1-2 mins after mixed fully, and then was ultrasonically treated for 28-30 mins. The obtained solution was used as medicine administrated to intravenous administration group, and the administration was conducted with a dose of 1 mL/kg body weight of each rat.
as §3, §4, §5, §6

For a further data set, the target named is T1, human S1P1 (Homo sapiens, UniProt P21453).
T1 construct: expressed in transfected cells; host or cells: CHO-S cells
T1 sequence (P21453 whole entry): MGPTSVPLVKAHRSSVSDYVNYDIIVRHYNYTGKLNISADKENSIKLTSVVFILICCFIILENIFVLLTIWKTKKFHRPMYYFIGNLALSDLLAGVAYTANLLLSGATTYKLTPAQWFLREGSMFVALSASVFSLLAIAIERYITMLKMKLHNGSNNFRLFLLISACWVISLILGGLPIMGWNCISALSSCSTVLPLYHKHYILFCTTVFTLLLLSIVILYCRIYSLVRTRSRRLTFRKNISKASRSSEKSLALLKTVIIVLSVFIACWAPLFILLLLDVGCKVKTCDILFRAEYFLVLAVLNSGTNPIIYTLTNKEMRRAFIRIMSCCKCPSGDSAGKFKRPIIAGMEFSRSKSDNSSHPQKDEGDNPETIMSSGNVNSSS
Briefly: Internalization effect experiment on S1P1 (CHO-S cells, Myc tag, flow cytometry). It counts as cell-based. The text has this:
It is well known that S1P1 small molecule agonists can prevent lymphocytes from entering the peripheral circulation by inducing internalization of S1P1 on cell surface. In order to determine whether the compounds provided by present invention have an activity of inducing S1P1 internalization, CHO—S cells expressing human S1P1, to replace the lymphocytes, are used as detection system of S1P1 internalization. For ease of monitoring the S1P1 on cell surface, a Myc tag is fused to N-terminal of S1P1, thus the expression of S1P1 is analyzed by flow cytometry after incubating the cells with fluorescent-labeled antibody against the Myc tag.
A 10 mM stock solution was prepared by dissolving compound 2 provided by the present invention in dimethyl sulfoxide (DMSO), and then the stock solution was diluted to different concentrations as desired with DMEM. CHO—S cells bearing human S1P1 with Myc tag were harvested and then adjusted to a density of one million cells per mL by Dulbecco's modified Eagle's medium (DMEM). Different concentrations of Compound 2 diluted in an equal volume were mixed and the cell suspension and then incubated at 37° C. for 1 hour. After incubation, the mixture was centrifuged at 800 RPM for 5 minutes to obtain the cells. The cells were resuspended in FACS buffer (PBS containing 1% BSA), and Myc antibody labelled with fluorescein isothiocyanate (FITC) (from Californian Miltenyi Biotec GmbH, USA) was added in and incubated for 1 hour on ice. The cells were washed, resuspended in pre-cooled FACS buffer and analysed by FACS Calibur flow cytometry.

The test system of data set [3] is lymphocytes in the peripheral blood. Put plainly: Effect on the number of lymphocytes in the peripheral blood. It counts as in vivo, Sprague-Dawley (SD) rats. Particulars: oral, SD rats. The text has this: S1P1, which is expressed on the surface of lymphocytes, is essential for lymphocytes to leave the secondary lymphoid tissue and then enter into the peripheral circulation. Small molecule agonists of S1P1 can activate the receptor and result in an internalization effect on the receptor. This mechanism is a currently known mechanism by which lymphocytes are prevented from leaving the secondary lymphoid tissue, then resulting in an decreased number of lymphocytes in the peripheral circulation. In order to determine whether the compounds provided by present invention can reduce the number of lymphocytes in the peripheral blood, an in vivo effect experiment on lymphocytes is performed.
An appropriate amount of compound 2 was prepared as a suspension with sodium carboxymethylcellulose (CMC-Na) and was given orally to three Sprague-Dawley (SD) rats. Blood samples (0.5 ml) were collected at 30 min before the administration and at different time points after the administration (the collected blood samples were placed in EP tubes containing an appropriate amount of EDTA-2K solution), and analyzed on ADVIA2120 blood cell analyzer directly.

In data set [4] the test system is Collagen Type II-Induced Arthritis. Briefly: Collagen type II-induced arthritis (rat CIA model). It counts as in vivo, Lewis rats. The conditions noted are these: oral, 1 mg/kg.
Method: To perform the testing, Lewis rats were induced to develop the disease as follows. Rats were anesthetized with isoflurane and were injected intradermally with a total of 0.5 mL CII/CFA emulsion. The emulsion was injected at 3 sites, one site at the base of the tail (0.1 mL), and the other two sites (0.2 mL/site) on the back of the rat near to the base of the tail. An identical booster injection was given i.d. at 7 days after the primary immunization avoiding previous injection sites.
The positive control group was given TOFACITINIB orally on day 12 after sensitization. The severity of arthritis in four paws was scored 2 times per week starting on day 7 after sensitization. The criteria was as follows: score 0: No evidence of erythema and swelling; score 1: Erythema and mild swelling confined to the mid-foot (tarsals) or ankle joint; score 2: Erythema and mild swelling extending from the ankle to the mid-foot; score 3: Erythema and moderate swelling extending from the ankle to the metatarsal joints; score 4: Erythema and severe swelling encompass the ankle, foot, and digits. Joint swelling, measured by the volume of hind paws using Plethysmometer, was determined on Day 0, and then 2 times per week from Day 7 to Day 28. Destruction of the joint was determined by X-Ray examination on Day 28.
[5] abbreviates: male, Sprague-Dawley, rat, plasma, oral administration (3 mg/kg), SD rats.
[6] abbreviates: intravenous administration, rats, in words.
[7] abbreviates: male, Sprague-Dawley, rat, plasma, intravenous administration (1 mg/kg), SD rats.

As to `CC(C)Cc1ccc(-c2nc(-c3ccc(CN4CC(C(=O)O)C4)c(F)c3)no2)cc1` [Compound 2, 1-{2-fluoro-4-[5-(4-isobutylphenyl)-1,2,4-oxadiazol-3-yl]-benzyl}-3-azetidine carboxylic acid], the “half-life shortening relative to compound 1” value in data set [1] (after oral administration, rats) is listed as roughly 50%. Besides, the half-life in data set [1] (male, Sprague-Dawley, rat, plasma, after oral administration, rats, read-out: terminal half-life (converted)) was less than 5.5 h. Also, the half-life in data set [1] (male, Sprague-Dawley, rat, plasma, oral administration (3 mg/kg), SD rats, read-out: T½ (converted)) was 5.47 ± 0.63 h. In data set [1] (setting [5]), the AUC(0-inf) worked out at 3830 ± 184 ng·h/mL, the concentration peaked (Cmax) at 341 ± 36.2 ng/mL and the Tmax worked out at 2 h. This compound also showed a F in data set [1] (oral administration (3 mg/kg), SD rats) of 63.4%. The “elimination speed after the highest concentration, compared with compounds 1 and 5” value in data set [1] (oral administration, rats, FIGS. 1A and 1B, in words) is on record as “accelerated obviously”. Also, in data set [2] (setting [6]), the “mean residence time (MRT) compared with compound 1” value is on record as “reduced significantly” and the “terminal half-life compared with compound 1” value is recorded as “reduced significantly”. In data set [2] (setting [7]), this compound had an AUC(0-inf) of 2010 ± 146 ng·h/mL, an MRT inf of 6.28 ± 0.44 h and a clearance of 8.32 mL/min/kg. Also, the half-life in data set [2] (male, Sprague-Dawley, rat, plasma, intravenous administration (1 mg/kg), SD rats, read-out: T½ (converted)) was 5.47 ± 0.42 h. Besides, the Vd in data set [2] (male, Sprague-Dawley, rat, plasma, intravenous administration (1 mg/kg), SD rats, read-out: Vss) came to 3.12 ± 0.101 L/kg. Moreover, the EC50 on human S1P1 (CHO-S cells expressing human S1P1, 1 hour at 37° C., read-out: Receptor Internalization (EC50) S1P1) worked out at 9.83 nM. For the same compound, the “activity of inducing S1P1 internalization” value at human S1P1 (CHO-S cells expressing human S1P1, in words) is recorded as “dose-dependent manner”. The “number of peripheral mononuclear cells and other leukocytes” value in data set [3] (in words) was “unobviously”. The “reduction of lymphocytes in the peripheral blood” value in data set [3] (dose of 0.01 mg/kg) was “more than 50%”. Besides, the “reduction of lymphocytes in the peripheral blood” value in data set [3] (dose of 1 mg/kg, in words) is on record as “the most reduction”. In addition, the “number of lymphocytes in the peripheral blood” value in data set [3] (three doses, 30 to 480 minutes after administration, in words) is “reduced the number of lymphocytes in the peripheral blood effectively”. Also, in data set [4] (Lewis rats, FIG. 5), the “development of arthritis based on joint swelling” value is “effective in inhibiting the development of arthritis”. In addition, the “development of arthritis based on destruction of joint structure” value in data set [4] (X-Ray on Day 28, Lewis rats, FIG. 6) was “effective in inhibiting the development of arthritis”.

These data come from patent publication US10280158B2, “Immune adjustment compound, use thereof and pharmaceutical composition comprising same” (SUZHOU CONNECT BIOPHARMACEUTICALS, LTD., priority 2013, dated 2019).
